Measurements as given in patent US8795979B2, “Hydrolase enzyme substrates and uses thereof” (General Atomics, priority 2011, dated 2014).
Each block holds one compound with its values, some of them ahead of it.

Legend:
Type in all cases: biochemical
[1] = molecular target: T1, aryl alcohol dehydrogenase (AAD) (Pseudomonas putida, UniProt P39849); experiment: Kinetic constants of AAD; settings: recombinant Pseudomonas putida AAD
T1 construct: made in house; host or cells: E. coli
T1 sequence (P39849 1-366): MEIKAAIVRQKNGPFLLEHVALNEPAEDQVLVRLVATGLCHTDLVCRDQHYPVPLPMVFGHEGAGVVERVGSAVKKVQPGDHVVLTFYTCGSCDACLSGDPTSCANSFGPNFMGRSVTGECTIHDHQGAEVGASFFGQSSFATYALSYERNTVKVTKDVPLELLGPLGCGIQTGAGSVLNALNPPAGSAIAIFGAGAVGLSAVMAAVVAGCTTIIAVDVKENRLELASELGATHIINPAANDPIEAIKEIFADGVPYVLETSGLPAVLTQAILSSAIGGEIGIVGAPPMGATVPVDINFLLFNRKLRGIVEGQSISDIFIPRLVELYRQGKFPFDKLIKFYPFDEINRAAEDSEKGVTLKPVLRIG
Description: AAO was purified from Pleurotus eryngii using the procedures described in Guillen, F. et al., “Substrate specificity and properties of aryl-alcohol oxidase from the ligninolytic fungus Pleurotus eryngii,” Eur. J. Biochem., 209:603-611 (1992). The purification steps include concentration, anion exchange chromatography and hydrophobic interaction chromatography. DNA construct for recombinant production of Pseudomonas putida AAD was made based on the DNA sequence disclosed in Shaw, J. P. et al., Kinetic studies on benzyl alcohol dehydrogenase encoded by TOL plasmid pWW0,” J. Biol. Chem., 268:10842-10850 (1993), and the recombinant Pseudomonas putida AAD was made by overexpression in E. coli. The cycling system was combined with chemiluminescent (lumino)-hydrogen peroxide-horseradish peroxidase) reaction to form a sensitive assay.
For AAD, KNADH=9.1±2 μM; Kp-Anisyl aldehyde=6.6±0.8 μM; and kcat=30/s.

aryl alcohol oxidase = experiment: Incubation with aryl alcohol oxidase alone, H2O2 detection; settings: no beta-galactosidase
Description: (§1) The aryl alcohol dehydrogenase used in this example was recombinantly produced based on the description in Guillen and Evans, Appl. Environmental Microbiol., 60(8):2811-17 (1994) and Reiser et al., J. Biol. Chem., 269(45):28152-28159 (1994).

beta-galactosidase = experiment: Hydrolysis by beta-galactosidase coupled with aryl alcohol oxidase, H2O2 detection; settings: 10 mM substrate, 10 unit/ml beta-galactosidase and 20 unit/ml aryl alcohol oxidase, 37° C., 30 min
Description: as §1

SMILES: COc1ccc(C=O)cc1 [p-Anisyl aldehyde]
Kp-Anisyl aldehyde (AAD) [1]: 6.6 ± 0.8 µM
kcat (AAD) [1]: 30 s⁻¹

KNADH (AAD) [1]: 9.1 ± 2 µM
SMILES: NC(=O)C1=CN([C@@H]2O[C@H](COP(=O)(O)OP(=O)(O)OC[C@H]3O[C@@H](n4cnc5c(N)ncnc54)[C@H](O)[C@@H]3O)[C@@H](O)[C@H]2O)C=CC1 [NADH, reference compound]

SMILES: COc1ccc(CO[C@@H]2OC(CO)[C@H](O)[C@@H](O)C2O)cc1 (stereo partly drawn) [p-MOBG, p-Methoxybenzyl-β-D-Galactopyranoside]
H2O2 detected on incubation with aryl alcohol oxidase alone (aryl alcohol oxidase): no H2O2 detected
generation of H2O2 (detected by peroxidase in the presence of 4-AA and TOOS at 560 nm) (beta-galactosidase): resulted in generation of H2O2
